The text below walks through data of article PMC7248693, “Synthesis and Biological Evaluation of 2-Substituted Benzyl-/Phenylethylamino-4-amino-5-aroylthiazoles as Apoptosis-Inducing Anticancer Agents” (Molecules, 2020).

In one data set the test system is tubulin. The following applies: previously reported series with general structure 2; reference not printed at the place; read-out: IC50 tubulin assembly assay; cited from earlier work.
The test system of data set [1] is panel of four different cancer cell lines. More on the design: method as in earlier work. The following applies: read-out: IC50 against a panel of four different cancer cell lines; cited from earlier work.
A further data set deals with U-937 leukemia cells. The data set can be described thus: Cell cycle analysis by flow cytometry (propidium iodide). The data set is classed as cell-based, human. As to the method: Induction of apoptosis in cancer cells is recognized as an efficient strategy for cancer chemotherapy. For this reason, it was decided to determine whether these compounds display their cytotoxic action through alterations in cell cycle progression and induction of cell apotosis. To this end, the effects at different time periods (6, 12 and 24 h) with different concentrations (10 and 30 μM) of 8f and 8k on cell cycle progression on U-937 leukemia cells were investigated by flow cytometry analyses.
Flow cytometric analysis of propidium iodide-stained cells was performed as previously described. Briefly, U-937 cells were treated with the indicated compounds at the specified concentrations in RPMI 1640 medium. After treatments, cells were centrifuged for 10 min at 500× g, washed with cold phosphate-buffered saline (PBS), fixed with ice-cold 75% ethanol and stored at −20 °C for at least 1 h. Samples were then centrifuged at 500 × g for 10 min at 4 °C, washed with PBS, resuspended in 200 μL of PBS containing 100 μg mL^−1 RNase A and 50 μg mL^−1 propidium iodide and incubated for 1 h in the dark. The DNA content was analyzed by flow cytometry with a Becton-Dickinson FACSVerse^TM cytometer (BD Biosciences, San Jose, CA, USA). The percentage of cells in each phase of the cell cycle was determined for a minimum of 10^4 cells, and histograms were analyzed with Flowing 2.5.0 software.

A further data set deals with SK-MEL-1. The data set can be described thus: Antiproliferative activity, MTT assay, SK-MEL-1 cells. The data set is classed as cell-based, human. The following applies: Homo sapiens, SK-MEL-1; 72 h, MTT; mean ± SE, at least three independent experiments. The source says:
(§1) In Table 1, we summarize the antiproliferative activity of the 15 novel 2-arylalkylamino-4-amino-5-(3′,4′,5′-trimethoxybenzoyl)thiazole derivatives 8a–o against human leukemia (U-937) and melanoma (SK-MEL-1) tumor cells lines.
(§2) Human U-937 and SK-MEL-1 cell lines were from the German Collection of Microorganisms and Cell Cultures (Braunschweig, Germany; DSMZ No: ACC 5 and ACC 303, respectively). The U-937 is a myeloid leukemia cell line isolated from a histiocytic lymphoma. SK-MEL-1 is a melanoma cell line. Cells were cultured in suspension in RPMI 1640 medium supplemented with 10% (v/v) fetal bovine serum and antibiotics (100 μg mL^−1 streptomycin and 100 U mL^−1 penicillin), at 37 °C in a humidified atmosphere containing 5% CO2. The trypan blue exclusion method was used for counting the cells by a hemocytometer, and cell viability was always greater than 95% in all experiments. Compounds were dissolved in DMSO, and further dilutions were made in culture medium just before use. […] The effects on cell viability of synthetic compounds were determined using a colorimetric assay with the reduction of 3-(4,5-dimethyl-2-thiazolyl-)-2,5-diphenyl-2H-tetrazolium bromide (MTT) as previously described. Briefly, 5 × 10^3 cells were seeded in 96-well microculture plates with increasing concentrations of compounds for 72 h. Then, MTT (0.5 mg mL^−1) was added and incubated for 4 h, and the reaction was stopped with 20% sodium dodecyl sulfate. A570 was used as a measure of cell viability. Concentrations inducing a 50% inhibition of cell growth were determined graphically by nonlinear regression using the curve-fitting algorithm of GraphPad Prism 4.0 (GraphPad Inc La Jolla, CA, USA).

The target of another data set is T1, CDK6/Cyclin D3 (Homo sapiens, UniProt Q00534).
T1 construct: purchased Promega
T1 sequence (Q00534 whole entry): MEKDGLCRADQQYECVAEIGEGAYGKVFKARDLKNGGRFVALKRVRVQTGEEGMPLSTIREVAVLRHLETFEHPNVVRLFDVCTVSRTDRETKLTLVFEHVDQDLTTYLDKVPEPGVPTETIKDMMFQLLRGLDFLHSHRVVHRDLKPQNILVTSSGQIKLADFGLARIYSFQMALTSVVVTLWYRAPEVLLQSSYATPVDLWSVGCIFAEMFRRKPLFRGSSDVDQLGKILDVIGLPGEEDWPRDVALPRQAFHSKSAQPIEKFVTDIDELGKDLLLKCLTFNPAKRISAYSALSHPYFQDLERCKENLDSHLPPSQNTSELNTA
T1 sequence (P30281 whole entry partner): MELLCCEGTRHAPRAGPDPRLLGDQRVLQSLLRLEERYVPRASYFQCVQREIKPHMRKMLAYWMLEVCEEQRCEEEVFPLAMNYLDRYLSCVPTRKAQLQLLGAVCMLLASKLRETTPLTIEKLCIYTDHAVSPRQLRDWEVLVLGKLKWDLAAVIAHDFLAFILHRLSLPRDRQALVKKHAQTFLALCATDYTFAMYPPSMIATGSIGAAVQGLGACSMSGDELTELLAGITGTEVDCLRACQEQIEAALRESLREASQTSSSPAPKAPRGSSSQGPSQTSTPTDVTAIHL
Nature of the data set: In vitro CDK inhibition assay (ADP-Glo), CDK6. It counts as biochemical. The following applies: single concentration of 10 μM; range over CDK4, CDK6, CDK9 and 8f, 8k; read-out: enzyme inhibition CDK6. As to the method: (§3) The CDK4, 6 and 9 inhibitory activies were determined using the CDK4/Cyclin D1 Assay kit (ProQinase, Freiburg im Breisgau, Germany), CDK6/Cyclin D3 Kinase Enzyme System (Promega, Milan, Italy) and CDK9/CyclinK Kinase Enzyme System (Promega) by ADP-Glo CDK assays following the manufacturer’s instructions. The assay was performed with the test compounds at 10 μM.
In general terms: ADP-Glo turns the ADP formed in a reaction into a luminescent signal.

Data set [2] in a line: Cytotoxicity against peripheral blood lymphocytes, MTT assay. It counts as cell-based. Conditions: human, peripheral blood lymphocytes (PBL) from healthy donors, read-out: IC50 cytotoxic activity against normal cells (PBL). How it is done:
In order to investigate the selective antiproliferative activity of the new synthesized compounds, we tested representative derivatives 8f and 8k against peripheral blood lymphocytes (PBL) isolated from healthy donors.
PBLs from healthy donors were obtained by separation on Lymphoprep (Fresenius KABI Norge AS, Halden, Norway) gradient. After extensive washing, cells were resuspended (1.0 × 10^6 cells/mL) in RPMI-1640 with 10% fetal bovine serum and incubated overnight in a 96-well tissue culture microtiter plate. Varying compound concentrations were added to the cells, and the MTT assay was used to assess viability after a 48 h treatment.
For orientation: Tetrazolium assays rely on reduction of a dye to a coloured formazan, in cell work by metabolically active cells.

The subject of a further data set is U-937. The data set can be described thus: Antiproliferative activity, MTT assay, U-937 cells. Conditions: for IC50: Homo sapiens, U-937, 72 h, MTT, mean ± SE, at least three independent experiments. It counts as cell-based, human.
From the text: as §1, §2

For the next data set, the target named is T2, CDK4/Cyclin D1 (Homo sapiens, UniProt P11802).
T2 construct: purchased ProQinase
T2 sequence (P11802 whole entry): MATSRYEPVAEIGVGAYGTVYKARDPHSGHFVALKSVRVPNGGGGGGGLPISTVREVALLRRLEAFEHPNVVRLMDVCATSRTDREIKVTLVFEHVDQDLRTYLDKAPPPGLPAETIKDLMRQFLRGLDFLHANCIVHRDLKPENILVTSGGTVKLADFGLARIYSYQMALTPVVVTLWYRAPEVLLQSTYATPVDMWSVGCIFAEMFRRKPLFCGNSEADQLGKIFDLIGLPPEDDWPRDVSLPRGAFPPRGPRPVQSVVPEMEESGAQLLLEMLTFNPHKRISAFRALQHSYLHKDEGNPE
T2 sequence (P24385 whole entry partner): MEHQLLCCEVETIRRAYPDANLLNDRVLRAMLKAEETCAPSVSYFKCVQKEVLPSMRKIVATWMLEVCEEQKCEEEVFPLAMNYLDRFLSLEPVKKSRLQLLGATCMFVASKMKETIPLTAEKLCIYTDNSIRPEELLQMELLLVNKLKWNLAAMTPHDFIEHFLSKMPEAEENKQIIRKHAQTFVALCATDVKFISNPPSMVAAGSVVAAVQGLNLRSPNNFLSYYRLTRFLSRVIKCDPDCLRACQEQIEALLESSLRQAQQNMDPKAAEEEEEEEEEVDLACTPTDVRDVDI
Nature of the data set: In vitro CDK inhibition assay (ADP-Glo), CDK4. It counts as biochemical. Conditions: single concentration of 10 μM; range over CDK4, CDK6, CDK9 and 8f, 8k; read-out: enzyme inhibition CDK4. As to the method:
as §3

The test system of the next data set is Bovine brain tubulin. Nature of the data set: Inhibition of tubulin polymerization (turbidimetric assembly). It counts as biochemical. The following applies: for IC50: 10 μM tubulin, 20 min incubation at 30 °C; for inhibition of tubulin polymerization: at high concentrations (up to 20 μM). How it is done: Bovine brain tubulin was purified as described previously. To evaluate the effect of the compounds on tubulin assembly in vitro [31], varying concentrations were preincubated with 10 μM tubulin in glutamate buffer at 30 °C and then cooled to 0 °C. After addition of GTP, the mixtures were transferred to 0 °C cuvettes in a recording spectrophotometer and warmed to 30 °C, and the assembly of tubulin was observed turbidimetrically. The IC50 was defined as the compound concentration that inhibited the extent of assembly by 50% after a 20 min incubation.

Another data set deals with T3, CDK9/CyclinK (Homo sapiens, UniProt P50750).
T3 construct: purchased Promega
T3 sequence (P50750 whole entry): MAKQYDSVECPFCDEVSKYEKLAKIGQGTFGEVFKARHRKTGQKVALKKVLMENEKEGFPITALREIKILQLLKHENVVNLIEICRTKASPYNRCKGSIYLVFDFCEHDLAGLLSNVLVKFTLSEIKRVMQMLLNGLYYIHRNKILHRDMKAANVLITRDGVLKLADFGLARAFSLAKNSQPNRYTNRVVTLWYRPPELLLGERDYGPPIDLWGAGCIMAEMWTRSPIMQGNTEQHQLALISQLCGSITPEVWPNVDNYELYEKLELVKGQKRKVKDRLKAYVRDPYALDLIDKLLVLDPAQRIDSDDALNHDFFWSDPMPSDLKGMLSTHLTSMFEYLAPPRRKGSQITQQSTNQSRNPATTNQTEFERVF
T3 sequence (O75909 whole entry partner): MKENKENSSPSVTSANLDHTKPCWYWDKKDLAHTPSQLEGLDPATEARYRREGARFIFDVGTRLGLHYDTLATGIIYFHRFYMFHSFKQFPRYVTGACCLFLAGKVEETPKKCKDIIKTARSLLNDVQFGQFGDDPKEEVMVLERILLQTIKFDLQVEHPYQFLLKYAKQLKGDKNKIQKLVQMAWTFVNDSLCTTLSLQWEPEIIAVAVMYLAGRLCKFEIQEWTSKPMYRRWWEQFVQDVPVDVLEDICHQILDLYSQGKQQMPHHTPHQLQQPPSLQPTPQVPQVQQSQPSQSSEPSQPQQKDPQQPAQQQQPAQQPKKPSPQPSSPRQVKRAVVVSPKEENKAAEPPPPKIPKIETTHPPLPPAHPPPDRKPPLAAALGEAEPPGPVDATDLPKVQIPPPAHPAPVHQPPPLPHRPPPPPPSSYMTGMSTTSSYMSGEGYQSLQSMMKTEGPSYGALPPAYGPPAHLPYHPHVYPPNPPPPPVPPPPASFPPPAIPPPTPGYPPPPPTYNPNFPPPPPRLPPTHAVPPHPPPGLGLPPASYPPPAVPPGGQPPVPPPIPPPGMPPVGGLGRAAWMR
Nature of the data set: In vitro CDK inhibition assay (ADP-Glo), CDK9. It counts as biochemical. The following applies: single concentration of 10 μM; range over CDK4, CDK6, CDK9 and 8f, 8k; read-out: enzyme inhibition CDK9. As to the method:
as §3

The next data set relates to CDK9. More on the design: method as in PMID 30454645. The following applies: cited from earlier work.

By IC50 is commonly meant the point on the concentration scale where inhibition reaches its midpoint. `COc1cc(C(=O)c2sc(Nc3ccc(C)cc3)nc2N)cc(OC)c1OC` [2b]: the IC50 in the data set with tubulin is 0.72 µM.
Consider `COc1cc(C(=O)c2sc(N(C)Cc3ccccc3)nc2N)cc(OC)c1OC` [3a], for which the IC50 in data set [1] was < 200 µM.
Usually inhibition stands for the share of the control response that was lost under treatment. Take `COc1cc(C(=O)c2sc(NCCc3ccc(Cl)cc3)nc2N)cc(OC)c1OC` [8f, (4-Amino-2-((4-chlorophenethyl)amino)thiazol-5-yl)(3,4,5-trimethoxyphenyl)methanone]: the “% G1” value in the data set on U-937 leukemia cells (6 h, 10 µM) was determined as 40.4 ± 1.0 %; in the data set on U-937 leukemia cells (6 h, 30 µM), 40.5 ± 1.6 %; in the data set on U-937 leukemia cells (12 h, 10 µM) it was 47.8 ± 1.0%; in the data set with U-937 leukemia cells (12 h, 30 µM), 27.4 ± 0.4 %; with U-937 leukemia cells (24 h, 10 µM) it was 42.5 ± 0.3 %; in the data set on U-937 leukemia cells (24 h, 30 µM), 12.6 ± 0.7 %. Moreover, the “% G2-M” value in the data set with U-937 leukemia cells (6 h, 10 µM) amounted to 23.6 ± 1.3%; with U-937 leukemia cells (6 h, 30 µM) it was 23.3 ± 1.4%; in the data set with U-937 leukemia cells (12 h, 10 µM), 21.5 ± 1.2%; in the data set with U-937 leukemia cells (12 h, 30 µM), 27.6 ± 0.6 %; with U-937 leukemia cells (24 h, 10 µM) it was 15.0 ± 0.8%; in the data set with U-937 leukemia cells (24 h, 30 µM) it was 16.6 ± 0.8%. The “% S” value is recorded as 29.3 ± 0.1 % with U-937 leukemia cells (6 h, 10 µM); 30.9 ± 0.4 % in the data set on U-937 leukemia cells (6 h, 30 µM); 22.4 ± 0.2% with U-937 leukemia cells (12 h, 10 µM); 25.5 ± 0.1 % in the data set on U-937 leukemia cells (12 h, 30 µM); 29.8 ± 0.3 % with U-937 leukemia cells (24 h, 10 µM); 13.6 ± 0.6 % with U-937 leukemia cells (24 h, 30 µM). Also, the “% Sub-G1” value was found to be 4.4 ± 0.5% with U-937 leukemia cells (6 h, 10 µM); 3.8 ± 0.1% in the data set on U-937 leukemia cells (6 h, 30 µM); 6.5 ± 0.2 % in the data set with U-937 leukemia cells (12 h, 10 µM); 17.8 ± 1.0 % in the data set with U-937 leukemia cells (12 h, 30 µM); 10.3 ± 0.7 % with U-937 leukemia cells (24 h, 10 µM); 56.2 ± 2.0 % in the data set with U-937 leukemia cells (24 h, 30 µM). In addition, the “increase of apoptotic cells with respect to control cells” value in the data set with U-937 leukemia cells (24 h, 30 µM) is on record as “approximately 16.5 fold”. Further, the IC50 with SK-MEL-1 is 12.2 ± 3.2 µM; with U-937, 6.7 ± 3.6 µM; with Bovine brain tubulin, > 20 µM. Besides, the inhibition at 10 µM on CDK6/Cyclin D3, on CDK4/Cyclin D1 and at CDK9/CyclinK was 2 to 8% throughout. For the same molecule, the IC50 at 48 h in data set [2] was > 100 µM. Further, the “inhibition of tubulin polymerization” value in the data set with Bovine brain tubulin is reported as “did not show any noteworthy inhibition”.
As for `COc1ccc(CCNc2nc(N)c(C(=O)c3cc(OC)c(OC)c(OC)c3)s2)cc1` [8k, (4-Amino-2-((4-methoxyphenethyl)amino)thiazol-5-yl)(3,4,5-trimethoxyphenyl)methanone], the “% G1” value stood at 38.7 ± 0.3 % with U-937 leukemia cells (6 h, 10 µM); 35.6 ± 0.5 % in the data set with U-937 leukemia cells (6 h, 30 µM); 41.9 ± 0.1 % in the data set with U-937 leukemia cells (12 h, 10 µM); 17.3 ± 0.4 % in the data set with U-937 leukemia cells (12 h, 30 µM); 39.4 ± 0.2 % in the data set with U-937 leukemia cells (24 h, 10 µM); 11.2 ± 0.9 % in the data set with U-937 leukemia cells (24 h, 30 µM). The “% G2-M” value in the data set with U-937 leukemia cells (6 h, 10 µM) came out at 25.3 ± 0.2 %; in the data set on U-937 leukemia cells (6 h, 30 µM), 23.1 ± 0.4%; in the data set with U-937 leukemia cells (12 h, 10 µM) it was 23.7 ± 1.4%; in the data set on U-937 leukemia cells (12 h, 30 µM) it was 29.9 ± 1.7 %; in the data set with U-937 leukemia cells (24 h, 10 µM), 17.2 ± 0.6%; in the data set on U-937 leukemia cells (24 h, 30 µM) it was 23.8 ± 2.9 %. For the same molecule, the “% S” value with U-937 leukemia cells (6 h, 10 µM) is listed as 30.7 ± 0.1 %; in the data set on U-937 leukemia cells (6 h, 30 µM), 32.0 ± 0.5 %; with U-937 leukemia cells (12 h, 10 µM), 20.2 ± 0.4%; in the data set on U-937 leukemia cells (12 h, 30 µM), 26.8 ± 0.2 %; with U-937 leukemia cells (24 h, 10 µM), 28.4 ± 1.1 %; with U-937 leukemia cells (24 h, 30 µM) it was 11.5 ± 0.4 %. Also, the “% Sub-G1” value in the data set with U-937 leukemia cells (6 h, 10 µM) is on record as 3.7 ± 0.4%; in the data set on U-937 leukemia cells (6 h, 30 µM), 7.6 ± 0.5 %; with U-937 leukemia cells (12 h, 10 µM), 12.1 ± 0.8 %; in the data set on U-937 leukemia cells (12 h, 30 µM) it was 24.3 ± 1.5 %; with U-937 leukemia cells (24 h, 10 µM), 12.7 ± 0.1 %; in the data set with U-937 leukemia cells (24 h, 30 µM) it was 51.5 ± 4.2 %. Further, in the data set with U-937 leukemia cells (24 h, 30 µM), the “increase of apoptotic cells with respect to control cells” value was ~15 fold. The IC50 in the data set on SK-MEL-1 is 8 ± 4.3 µM; with U-937, 5.7 ± 1.3 µM; in the data set with Bovine brain tubulin, > 20 µM. Further, the inhibition at 10 µM on CDK6/Cyclin D3, at CDK4/Cyclin D1 and at CDK9/CyclinK was 2 to 8% in each case. In addition, the IC50 at 48 h in [2] is > 100 µM. Also, in the data set with U-937 (cell line not specified (U-937 and SK-MEL-1)), the “increase of antiproliferative activity relative to 8j” value is recorded as 3-4 fold. For the same molecule, the “inhibition of tubulin polymerization” value with Bovine brain tubulin is given as “did not show any noteworthy inhibition”.
With `COc1ccc(/C=C\c2cc(OC)c(OC)c(OC)c2)cc1O` [CA-4, combretastatin A-4, reference compound], the IC50 is 3.1 ± 2.9 µM with SK-MEL-1, 0.019 ± 0.012 µM in the data set with U-937 and 1.4 µM with tubulin.
Regarding `Nc1nc(N[C@H]2CC3CCC2C3)sc1C(=O)c1ccccc1[N+](=O)[O-]` (stereo partly drawn) [compound 7, 2-(exo-2′-aminonorbornane)-4-amino-5-(2′-nitrobenzoyl)-thiazole], the “selectivity for CDK9 than for other CDKs” value with CDK9 is on record as “at least 22 fold”.
